We go through five compounds from patent publication US20040136938A1, “Composition of vitamin c and/or vitamin a” (priority 2000, published 2004).

The subject of one data set is cells. To be noted: cited from earlier work.
For data set [1], the system named is fibroblasts of human skin. As to the kind of experiment: Cellular proliferation of fibroblasts of human skin ([3H]-thymidine incorporation, 72 h). The class given is cell-based. The note with it: for decrease in the cellular proliferation: retinol 20 μg/ml (69.72 μM) alone, vs. reference without retinol. As to the method:
The Mixture of oligofucoses-1 as prepared in example 1 is tested in concentrations of 1 μg/ml and 10μg/ml, both alone and in the simultaneous presence of 375 μg/ml of sodium ascorbate and/or 20 μg/ml of retinol.
The fibroblasts of human skin used in this study come from the removal of skin from a person (28th passing). The cells were cultivated on 12-well plates, in a DMEM culture medium with 10% of fetal calf serum (SVF), 1% of antibiotics and of antifungus (PSF), and 1 μCi/ml of [^3H]-timidine (ICN) for 72 hours in the presence of the products to be tested at final concentrations of 1 μg/ml and 10 μg/ml.
After 72 hours of culture in stove (5% (v/v) CO2, 95% (v/v) air) at 37° C. in the presence of the tested products, the cells were washed four times with PBS, then the cellular carpet was detached for 0.05% of tripsin. Three ml of scintillation liquid were then added per sample, then the radioactivity incorporated in the cells is read in a computer with scintillation.
One incubated the cells with 20 μg/ml of retinol (69.72 μM). […] Two concentrations were tested: 1 μg/ml and 10 μg/ml.
One incubated the cells with 375 μg/ml of Na ascorbate (1.875 mM). […] Two concentrations were tested: 1 μg/ml and 10 μg/ml.
The cells were simultaneously incubated with 375 μg/ml of Na ascorbate and 20 μg/ml of retinol.
Background: Uptake of a labelled nucleoside into DNA is a usual measure of proliferation.

Data set [2] has as its system fibroblasts of mammaplasty. As to the kind of experiment: Collagen synthesis by fibroblasts (Sirius red coloration). The data set is classed as cell-based, human. As to the method:
The fibroblasts of mammaplasty of a person, in passage 14, were seeded on 12-well plates at the rate of 0.5.10^5 cells per well. The cells are placed in culture for 48 hours in the presence of a DMEM culture medium at 10% of fetal calf serum (SVF), in stove (5% (v/v) CO2, 95% (v/v) air) at 37° C.
After rinsing with PBS, they are treated and placed again in culture for 48 hours in the presence of products to be tested and of DMEM without SVF.
The method is based on a specific coloration of collagen by the Sirius red. The cells are directly fixed by the Bouin liquid (1 ml/well) for 1 hour, after exhaustive rinsing with PBS. The fixer is then aspirated and the plates are rinsed with running water by immersion for 15 minutes.
The coloration is carried out under stirring for 1 hour (1 ml/well) and the plates are then rinsed with hydrochloric acid 0.01 N. Then the material is dissolved in 200 μl of sodium hydroxide 0.1N before transferring to the microtiter plates (Nunc). The optical density is measured at 550 nm against sodium hydroxide as a blank.
The counting of the cells is carried out in 4 wells of each plate, and one detaches the cells with tripsin at 0.05%.
One studied the effect of fucose and of the Mixture of oligofucoses-1 (at 10 μg/ml each) in the presence or absence of sodium ascorbate at 500 μg/ml. And then in the presence or absence of retinol (10 μg/ml).

SMILES strings stand for the structures.

On to `O=C1O[C@H]([C@@H](O)CO)C(O)=C1O` [ascorbic acid], for which the “concentration from which cytotoxic effect starts” value in the data set with cells was “about 0.01 % by weight”.

As for `O=C1O[C@H]([C@@H](O)CO)C([O-])=C1O.[Na+]` [Na ascorbate, sodium ascorbate], the “% vs. control (proliferation)” value in data set [1] (Na ascorbate 375 μg/ml alone) is −64.4%. Also, the “effect on synthesis of collagen” value in data set [2] (sodium ascorbate 500 μg/ml alone, with respect to the effect of 50 μg/ml) is listed as “activates the synthesis of collagen very little”.

In the case of `CC1=C(/C=C/C(C)=C/C=C/C(C)=C/CO)C(C)(C)CCC1` [Retinol, retinol], the “decrease in the cellular proliferation” value in data set [1] is recorded as “about 45%”; in data set [1] (listed as retinol), 42.5%. In data set [1] (retinol 20 μg/ml alone), the “% vs. control (proliferation)” value is −42.5%. Besides, the “effect on synthesis of collagen” value in data set [2] (retinol alone (10 μg/ml)) is “inhibiting effect on the synthesis of collagen”.

On to `C[C@H](O)[C@@H](O)[C@@H](O)[C@H](O)C=O` [fucose], for which, in data set [2] (10 μg/ml with retinol 10 μg/ml, 48 h), the “effect on synthesis of collagen in the presence of retinol” value is “this inhibition is greatly abolished”. The “effect on biosynthesis of collagen in the presence of sodium ascorbate” value in data set [2] (10 μg/ml with sodium ascorbate 500 μg/ml, 48 h) is reported as “stimulation of the biosynthesis of collagen”. Besides, the “decrease in the amount of collagen synthesized by the fibroblasts” value in data set [2] (fucose alone, 48 h, DMEM without SVF) was “about 19%”.

Turning to `O=C1O[C@H]([C@@H](O)CO)C(O)=C1O` [ascorbate], in the data set on cells (cell detachment, slowed proliferation, cellular death), the “concentration at which cytotoxic effect can be observed” value is recorded as “about 2.5 mM”.
